According to patent US20190030036A1, “PHOSPHODIESTERASE INHIBITOR TREATMENT” (Cyrano Therapeutics, Inc., priority 2013, published 2019):

Key:
[1] = tested on: subjects with a taste and/or smell disorder; assay: Taste and/or smell function after intranasal dosage units in a plume from a multi-dose nasal spray device (Examples 10-15); assay type: in vivo, human; settings: once per day in each naris
Description: The improvements in taste and/or smell function are evidenced by a decrease in the detection threshold for at least one odorant and/or tastant, a decrease in the recognition threshold for at least one odorant and/or tastant, and/or an increase in a magnitude estimation for at least one odorant and/or tastant.

[2] = tested on: patients with hyposmia; assay: Subjective overall change in smell function; open trial of oral theophylline; assay type: in vivo, human; settings: cilostazol added to 600 mg or 800 mg of theophylline in patients who improved <5%
Procedure: Independently, patients were also required to grade their ability to smell daily on a scale from 0-100, with 0 reflecting no overall smell function over a 24 hour period, 100 reflecting normal overall smell function over this period and numbers from 0-100 reflecting their estimation of their overall ability to smell odors over this period.
After determination of hyposmia, patients were treated in an open label, fixed design, controlled open trial. Patients were given an oral extended release theophylline in divided daily doses taken in the middle of breakfast and lunch. All patients were initially given 200 mg of theophylline; changes in this dose were made based upon subjective responses to therapy. If at a subsequent return visit, patients reported ≥5% subjective improvement in overall smell function, they continued on this same dose of theophylline and were reevaluated after four to six months of continued treatment. Results from any subsequent return from these improved patients were not included in any subsequent data report. All subsequent comparisons between treated and untreated patients were made only between those patients continuing in the study compared to their own measurements obtained in the untreated state. If patients reported <5% subjective improvement, their theophylline dose was increased by 200 mg daily and they were scheduled for retesting at the study site after two to four months at this new dosage. For patients that reported <5% improvement, this sequence continued until patients reached 800 mg of theophylline, at which time the study was considered completed.
Patients returned for reevaluation after two to four months of treatment. Measurements of blood serum theophylline were measured by a fluorescence polarization assay (Abbott, Chicago, Ill.). At this time, subjective changes in smell function were measured independently (compared to patient's memory of previous normal smell function monitored by use of the patients' daily measurements) using the scale from −100−0-+100 previously described. After independently recording their subjective responses, smell function was measured for all four odors with DT, RT, ME and H determined without recourse to prior measurements.
Subjective overall changes in smell acuity were reported by telephone and by FAX or email at two—four month intervals after treatment was initiated using the standardized form in which they measured daily changes in smell acuity using the −100−0-+100 scale as noted above. Using the same criteria noted above, if at their initial two—four month call-in they reported improvement in smell acuity of ≥5%, they continued at 200 mg and returned to the study site at four—six months on this treatment dose. If they reported improvement in smell acuity of <5% their dose of theophylline was increased to 400 mg for an additional two—four months and they then called the study site at the end of this period.

[3] = tested on: PDE; settings: non-specific PDE inhibitor; cited from earlier work
[4] = tested on: asthmatic patients; assay: sGaw after inhaled dry powder in asthmatic patients (Examples 5, 6)
Procedure: (§1) To test this theory, asthmatic patients are enrolled in a dose escalating single blind study. On arrival to the clinic, subjects are allowed to rest for 20 minutes before baseline measurements of FEV1 (six recordings) and sGaw (five recordings) are made. Subjects receive a dry powder dispenser loaded with a dose of 2 mg theophylline or a dry powder carrier. […] After each inhalation, measurements of sGaw are made at 1, 3, 5, 10, 15, 20, 25, and 30 minutes.
On completion of the last recording, subjects inhale a 200 μg dose of salbutamol from a metered inhaler and a further measurement of sGaw is made after 15 minutes. Subjects are also monitored for coughing and are questioned about the taste of the drug.
as §1, with “Asthmatic patients” for “To test this theory, asthmatic patients”, “of 1” for “of 2”, “mg IBMX formulated as a dry powder” for “mg theophylline”
On completion of the last recording, subjects inhale a 200 μg dose of salbutamol from a metered inhaler and a further measurement of sGaw made after 15 minutes. Subjects are also be monitored for coughing and are questioned about the taste of the drug.

Compound: O=C1CCc2cc(OCCCCc3nnnn3C3CCCCC3)ccc2N1 [cilostazol]
- taste and/or smell function [1]: improvement in taste and/or smell function
- additional patients with improved smell function [2]: 15%

Compound: COc1ccc(Cc2nccc3cc(OC)c(OC)cc23)cc1OC [papaverine]
- taste and/or smell function [1]: improvement in taste and/or smell function

Compound: CC(C)Cn1c(=O)n(C)c(=O)c2[nH]cnc21 [IBMX, 3-isobutyl-1-methylxanthine]
- IC50 [3]: 2 to 50 µM
- sGaw above the baseline measurement ([4]; after 30 minutes, inhaled dry powder 1 mg IBMX): 20%
- taste and coughing ([4]; human, in vivo): without the unpleasant taste or the induction of coughing
- increase in sGaw relative to 200 μg inhaled salbutamol ([4]; inhaled dry powder 1 mg IBMX): comparable
- time until sGaw baseline is reached ([4]; inhaled dry powder 1 mg IBMX): one and a half

Compound: O=C(Nc1c(Cl)cncc1Cl)c1ccc(OC(F)F)c(OCC2CC2)c1 [roflumilast]
- taste and/or smell function [1]: improvement in taste and/or smell function
